# Target: T1, Human CXCR3 (N-delta 4) (Homo sapiens, UniProt P49682)
# T1 construct: CD8 leader (N); Flag tag; expressed in transfected cells; membranes prepared
# T1 sequence (P49682 5-368 limits assumed): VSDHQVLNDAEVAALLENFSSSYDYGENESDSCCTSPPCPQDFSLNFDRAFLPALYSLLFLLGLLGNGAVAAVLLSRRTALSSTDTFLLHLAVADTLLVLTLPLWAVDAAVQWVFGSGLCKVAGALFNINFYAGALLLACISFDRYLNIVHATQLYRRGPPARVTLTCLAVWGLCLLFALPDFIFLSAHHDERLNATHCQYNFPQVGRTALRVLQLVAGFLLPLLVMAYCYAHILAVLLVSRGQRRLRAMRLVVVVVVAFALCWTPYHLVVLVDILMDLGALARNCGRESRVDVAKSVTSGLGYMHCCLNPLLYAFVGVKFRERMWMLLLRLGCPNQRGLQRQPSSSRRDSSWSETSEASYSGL
# Test: Human CXCR3 (N-delta 4) scintillation proximity assay (SPA), [125I] IP-10 binding to Ba/F3-hCXCR3 membranes
# Details: IC50 rating; 25 pM [125I] IP-10, membranes of Ba/F3 cells expressing human CXCR3 (N-delta 4)
# Excerpt: The inventive compounds can readily be evaluated to determine activity at The CXCR3 receptors by known methods, such as, for example, Development of Human CXCR3 (N-delta 4) Binding Assay.
# Cloning and Expression of Human CXCR3 (N-delta 4):
# The DNA encoding human CXCR3 was cloned by PCR using human genomic DNA (Promega, Madison, Wis.) as a template. The PCR primers were designed based on the published sequence of human orphan receptor GPR9 (1) with incorporated restriction sites, a Kozak consensus sequence, CD8 leader and Flag tag. The PCR product was subcloned into the mammalian expression vector pME18Sneo, a derivative of the SR-alpha expression vector (designated as pME18Sneo-hCXCR3 (N-delta 4).
# IL-3-dependent mouse pro-B cells Ba/F3 were transfected by electroporation in 0.4 ml Dulbecco's PBS containing 4×10^6 cells with 20 μg of pME18Sneo-hCXCR3 (N-delta 4) plasmid DNA. Cells were pulsed at 400 Volts, 100 OHMs, 960 μFd. The transfected cells were under selection with 1 mg/ml G418 (Life Technologies, Gaithersburg, Md.). G418-resistant Ba/F3 clones were screened for CXCR3 expression by specific binding of [^125I] IP-10 (NEN Life Science Products, Boston, Mass.).
# Preparation of Ba/F3-hCXCR3 (N-delta 4) Membranes
# Ba/F3 cells expressing human CXCR3 (N-delta 4) were pelleted and resuspended in the lysis buffer containing 10 mM HEPES, pH 7.5 and Complete® protease inhibitors (1 tablet per 100 ml) (Boehringer Mannheim, Indianapolis, Ind.) at a cell density of 20×10^6 cells per ml. After 5 minutes incubation on ice, cells were transferred to 4639 cell disruption bomb (Parr Instrument, Moline, Ill.) and applied with 1,500 psi of nitrogen for 30 minutes on ice. Large cellular debris was removed by centrifugation at 1,000×g. Cell membrane in the supernatant was sedimented at 100,000×g. The membrane was resuspended in the lysis buffer supplemented with 10% sucrose and stored at −80° C. Total protein concentration of the membrane was determined by BCA method from Pierce (Rockford, Ill.).
# Human CXCR3 (N-delta 4) Scintillation Proximity Assay (SPA)
# For each assay point, 2 μg of membrane was preincubated for 1 hr with 300 μg wheat germ agglutinin (WGA) coated SPA beads (Amersham, Arlington Heights, Ill.) in the binding buffer (50 mM HEPES, 1 mM CaCl2, 5 mM MgCl2, 125 mM NaCl, 0.002% NaN3, 1.0% BSA) at room temperature. The beads were spun down, washed once, resuspended in the binding buffer and transferred to a 96-well Isoplate (Wallac, Gaithersburg, Md.). 25 pM of [^125I] IP-10 with tested compounds in a series of titration were added to start the reaction. After 3 hr reaction at room temperature, the amount of [^125I] IP-10 bound to the SPA beads was determined with a Wallac 1450 Microbeta counter.
# The Ki values for the various example compounds of the present invention are given in the afore-mentioned Table 1. From these values, it would be apparent to the skilled artisan that the compounds of the invention have excellent utility CXCR3 antagonists.
row,IC50 [nM],Structure (SMILES)
1,< 25,CC[C@H]1CN(c2nc(N)c(C(=O)NC(=N)NC)nc2Cl)CCN1C1CCN(C(=O)c2ccc(Cl)nc2N)CC1 [Compound No. 1]
2,< 25,CCNC(=N)NC(=O)c1nc(Cl)c(N2CCN(C3CCN(C(=O)c4ccc(Cl)nc4N)CC3)[C@@H](CC)C2)nc1N [Compound No. 5]
3,< 25,CC[C@H]1CN(c2nc(N)c(C(=O)N[C@H]3CC[C@H]3O)nc2Cl)CCN1C1CCN(C(=O)c2ccc(Cl)nc2N)CC1 [Compound No. 15]
4,25 to 100,CC[C@H]1CN(c2nc(N)c(C(=O)OC)nc2Cl)CCN1C1CCN(C(=O)c2ccc(Cl)nc2N)CC1 [Compound No. 58]
5,< 25,CCNC(=O)c1nc(C)c(N2CCN(C3CCN(C(=O)c4ccc(Cl)nc4N)CC3)[C@@H](CC)C2)nc1N [Compound No. 156]
6,< 25,CC[C@H]1CN(c2nc(N)c(C(=O)NC3CC3)nc2C)CCN1C1CCN(C(=O)c2ccc(Cl)nc2N)CC1 [Compound No. 157]
7,< 25,CC[C@H]1CN(c2nc(N)c(C(=O)NC(=N)N)nc2Cl)CCN1C1CCN(C(=O)c2ccc(Cl)nc2N)CC1 [compound 3]
8,< 25,CC[C@H]1CN(c2nc(N)c(C(=O)NC3CC3)nc2Cl)CCN1C1CCN(C(=O)c2ccc(Cl)nc2N)CC1 [compound 4]
9,< 25,CC[C@H]1CN(c2nc(N)c(C(=O)NCCO)nc2Cl)CCN1C1CCN(C(=O)c2ccc(Cl)nc2N)CC1 [compound 7]
10,< 25,CC[C@H]1CN(c2nc(N)c(C(=O)NC[C@@H](C)O)nc2Cl)CCN1C1CCN(C(=O)c2ccc(Cl)nc2N)CC1 [compound 8]
11,< 25,CC[C@H]1CN(c2nc(N)c(C(=O)N[C@@H]3CC[C@@H]3O)nc2Cl)CCN1C1CCN(C(=O)c2ccc(Cl)nc2N)CC1 [compound 9]
12,< 25,CC[C@H]1CN(c2nc(N)c(C(=O)NCC(F)(F)F)nc2Cl)CCN1C1CCN(C(=O)c2ccc(Cl)nc2N)CC1 [compound 12]
13,< 25,CC[C@H]1CN(c2nc(N)c(C(=O)NC(=N)NC(C)=O)nc2Cl)CCN1C1CCN(C(=O)c2ccc(Cl)nc2N)CC1 [compound 14]
14,< 25,CC[C@H]1CN(c2nc(N)c(C(=O)NCC3CC3)nc2Cl)CCN1C1CCN(C(=O)c2ccc(Cl)nc2N)CC1 [compound 21]
15,< 25,CC[C@H]1CN(c2nc(N)c(C(=O)NC3(CO)CC3)nc2Cl)CCN1C1CCN(C(=O)c2ccc(Cl)nc2N)CC1 [compound 24]
16,< 25,CC[C@H]1CN(c2nc(N)c(C(=O)NCC(C)O)nc2Cl)CCN1C1CCN(C(=O)c2ccc(Cl)nc2N)CC1 (stereo partly shown) [compound 25]
17,< 25,CC[C@H]1CN(c2nc(N)c(C(=O)NCCC#N)nc2Cl)CCN1C1CCN(C(=O)c2ccc(Cl)nc2N)CC1 [compound 26]
18,< 25,CC[C@H]1CN(c2nc(N)c(C(=O)NCC3(O)CC3)nc2Cl)CCN1C1CCN(C(=O)c2ccc(Cl)nc2N)CC1 [compound 32]
19,< 25,CC[C@H]1CN(c2nc(N)c(C(N)=O)nc2Cl)CCN1C1CCN(C(=O)c2ccc(Cl)nc2N)CC1 [compound 35]
20,< 25,CC[C@H]1CN(c2nc(N)c(C(=O)N[C@@H]3C[C@@H]3F)nc2Cl)CCN1C1CCN(C(=O)c2ccc(Cl)nc2N)CC1 [compound 37]
21,< 25,CCNC(=O)NCc1nc(Cl)c(N2CCN(C3CCN(C(=O)c4ccc(Cl)nc4N)CC3)[C@@H](CC)C2)nc1N [compound 47]

# Further lines, the compound ahead of its results:
row,Structure (SMILES),IC50 [nM]
1,CC[C@H]1CN(c2ncc(C(=O)NC3CC3)nc2C)CCN1C1CCN(C(=O)c2ccc(Cl)nc2N)CC1 [Compound No. 155],< 25
2,CC[C@H]1CN(c2nc(N)c(C(=O)NC[C@@H](C)O)nc2Cl)CCN1C1CCN(Cc2ccc(Cl)nc2N)CC1 [compound 2],< 25
3,CC[C@H]1CN(c2nc(N)c(C(=O)NC3CC3)nc2Cl)CCN1C1CCN(C(=O)c2cc(F)c(Cl)nc2N)CC1 [compound 6],< 25
4,CC[C@H]1CN(c2ncc(C(N)=O)nc2Cl)CCN1C1CCN(C(=O)c2ccc(Cl)nc2N)CC1 [compound 10],< 25
5,CC[C@H]1CN(c2ncc(C(=O)NC[C@@H](C)O)nc2Cl)CCN1C1CCN(C(=O)c2ccc(Cl)nc2N)CC1 [compound 11],< 25
6,CC[C@H]1CN(c2nc(N)c(C(=O)NC)nc2Cl)CCN1C1CCN(C(=O)c2cc(F)c(Cl)nc2N)CC1 [compound 13],< 25
7,CC[C@H]1CN(c2nc(N)c(C(=O)NC3CC3)nc2Cl)CCN1C1CCN(C(=O)c2cc(F)c(Cl)nc2Cl)CC1 [compound 16],< 25
8,CC[C@H]1CN(c2nc(NCCOC)c(C(=O)NC3CC3)nc2Cl)CCN1C1CCN(C(=O)c2ccc(Cl)nc2N)CC1 [compound 17],< 25
9,CC[C@H]1CN(c2nc(N)c(C(=O)N[C@@H]3CCC[C@H]3O)nc2Cl)CCN1C1CCN(C(=O)c2ccc(Cl)nc2N)CC1 [compound 18],< 25
10,CC[C@H]1CN(c2nc(N)c(C(=O)NC3CC3)nc2Cl)CCN1C1CCN(C(=O)c2ccc(Cl)nc2Cl)CC1 [compound 19],< 25
11,CC[C@H]1CN(c2nc(N)c(C(=O)NCCO)nc2Cl)CCN1C1CCN(Cc2ccc(Cl)nc2)CC1 [compound 20],< 25
12,CC[C@H]1CN(c2nc(N)c(C(=O)NCCO)nc2Cl)CCN1C1CCN(C(=O)c2cc(F)c(Cl)nc2Cl)CC1 [compound 22],< 25
13,CC[C@H]1CN(c2nc(N)c(C(=O)NC3CCCC3O)nc2Cl)CCN1C1CCN(C(=O)c2ccc(Cl)nc2N)CC1 (stereo partly shown) [compound 27],< 25
14,CC[C@H]1CN(c2nc(N)c(C(=O)Nc3ncc[nH]3)nc2Cl)CCN1C1CCN(C(=O)c2ccc(Cl)nc2N)CC1 [compound 28],< 25
15,CC[C@H]1CN(c2nc(N)c(C(=O)NCCO)nc2Cl)CCN1C1CCN(Cc2ccc(Cl)nc2Cl)CC1 [compound 29],< 25
16,CC[C@H]1CN(c2nc(NCCC(=O)OC)c(C(=O)NC3CC3)nc2Cl)CCN1C1CCN(C(=O)c2ccc(Cl)nc2N)CC1 [compound 30],< 25
17,CC[C@H]1CN(c2nc(N)c(C(N)=O)nc2Cl)CCN1C1CCN(Cc2ccc(Cl)nc2N)CC1 [compound 31],< 25
18,CC[C@H]1CN(c2nc(N)c(C(=O)Nc3ccon3)nc2Cl)CCN1C1CCN(C(=O)c2ccc(Cl)nc2N)CC1 [compound 33],< 25
19,CC[C@H]1CN(c2nc(N)c(C(=O)NCCNS(C)(=O)=O)nc2Cl)CCN1C1CCN(Cc2ccc(Cl)nc2N)CC1 [compound 34],< 25
20,CC[C@H]1CN(c2nc(NC(=O)N(C)C)c(C(=O)NC3CC3)nc2Cl)CCN1C1CCN(C(=O)c2ccc(Cl)nc2N)CC1 [compound 38],< 25
21,CC[C@H]1CN(c2nc(N)c(C(=O)NCCO)nc2Cl)CCN1C1CCN(Cc2ccc(OC)nc2)CC1 [compound 39],< 25
22,CC[C@H]1CN(c2nc(N)c(C(=O)NCCO)nc2Cl)CCN1C1CCN(C(=O)c2ccc(Cl)nc2Cl)CC1 [compound 40],< 25
23,CC[C@H]1CN(c2nc(N)c(C(N)=O)nc2Cl)CCN1C1CCN(C(=O)c2cc(F)c(Cl)nc2N)CC1 [compound 41],< 25
24,CC[C@H]1CN(c2nc(N)c(C(=O)N[C@H]3CCC[C@@H]3O)nc2Cl)CCN1C1CCN(C(=O)c2ccc(Cl)nc2N)CC1 [compound 42],< 25
25,CC[C@H]1CN(c2nc(N)c(C(=O)NC)nc2Cl)CCN1C1CCN(C(=O)c2ccc(Cl)nc2Cl)CC1 [compound 43],< 25
26,CC[C@H]1CN(c2nc(N)c(C(=O)NC)nc2Cl)CCN1C1CCN(C(=O)c2ccc(Cl)nc2)CC1 [compound 44],< 25
27,CC[C@H]1CN(c2nc(N)c(C(=O)NC)nc2Cl)CCN1C1CCN(C(=O)c2cc(F)c(Cl)nc2Cl)CC1 [compound 45],< 25

# Same assay, conditions: human CXCR3 (N-delta 4) SPA
row,Structure (SMILES),IC50 [nM]
1,CC[C@H]1CN(c2nc(N)c(C(=O)NC(=N)NC)nc2Cl)CCN1C1CCN(C(=O)c2ccc(Cl)nc2N)CC1 [Compound No. 1],0.7
